The results in this text go back to patent US10532985B2, “Heterocycle and carbocycle derivatives having TRKA inhibitory activity” (Shionogi & Co., Ltd., priority 2014, dated 2020).

Data set [1] deals with T1, human TrkA (Homo sapiens, UniProt P04629).
T1 construct: purchased Lifetechnologies PV3144
Description: Test Example 2: Human TrkA Inhibition Assay. The data set is classed as biochemical. The following applies: Test Example 2. In a few lines:
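Mobility-shift kinase assay: 90 min reaction at room temperature, stopped with EDTA buffer; phosphorylated and non-phosphorylated fluorescent substrate measured, conversion ratio calculated. Inhibition % normalised between DMSO-only wells and no-TrkA wells.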

For data set [2], the target named is T1, human TrkA. The data set is described as follows: Test Example 2-2: Human TrkA Inhibition Assay. The data set is classed as biochemical. The method in brief: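 Kinase (1 nmol/L) pre-incubated 15 min at room temperature with compound, then FL-peptide 27 (1.5 μmol/L) and ATP ([…]) added for 120 min at 37 °C; EDTA stop. Phosphorylated and unphosphorylated substrate separated by mobility-shift readout; IC50 by logistic regression over 10 concentrations.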

Data set [3] concerns the target T2, human ether-a-go-go related gene (hERG) channel (Homo sapiens, UniProt Q12809).
T2 construct: expressed in transfected cells; host or cells: CHO cells
Description: Test Example 3: hERG Test (whole cell patch clamp, IKr). The data set is classed as cell-based. The note with it: CHO cells expressing hERG. The source says: For the purpose of assessing risk of an electrocardiogram QT interval prolongation of the compound of the present invention, effects of the compound of the present invention on delayed rectifier K current (I r), which plays an important role in the ventricular repolarization process, was studied using CHO cells expressing human ether-a-go-go related gene (hERG) channel.
After a cell was retained at a membrane potential of −80 mV by whole cell patch clamp method using an automated patch clamp system (QPatch; Sophion Bioscience A/S), IKr induced by leak potential at −50 mV, and then depolarization pulse stimulation at +20 mV for 2 seconds and, further, repolarization pulse stimulation at −50 mV for 2 seconds, was recorded. After the generated current was stabilized, extracellular solution (NaCl: 145 mmol/L, KCl: 4 mmol/L, CaCl2: 2 mmol/L, MgCl2: 1 mmol/L, glucose: 10 mmol/L, HEPES (4-(2-hydroxyethyl)-1-piperazineethanesulfonic acid): 10 mmol/L, pH7.4), in which the compound of the present invention had been dissolved at an objective concentration, was applied to the cell at room temperature for 10 minutes. From the recording IKr, an absolute value of the tail peak current was measured based on the current value at the resting membrane potential using analysis software (Falster Patch; Sophion Bioscience A/S). Further, the % inhibition relative to the tail peak current before application of the compound of the present invention was calculated, and compared with the vehicle-applied group (0.1% dimethyl sulfoxide solution) to assess influence of the compound of the present invention on IKr.
For orientation: The hERG channel carries a current that helps repolarise heart muscle cells.

Data set [4] in a line: Test Example 9: Metabolism Stability Test. The data set is classed as in vitro ADME. The note with it: human liver microsomes 0.5 mg protein/mL, 30 minutes, 37° C., 1 mmol/L NADPH. The protocol:
(§1) Using commercially available pooled human hepatic microsomes, a compound of the present invention was reacted for a constant time, and a remaining rate was calculated by comparing a reacted sample and an unreacted sample, thereby, a degree of metabolism in liver was assessed.
(§2) A reaction was performed (oxidative reaction) at 37° C. for 0 minute or 30 minutes in the presence of 1 mmol/L NADPH in 0.2 mL of a buffer (50 mmol/L Tris-HCl pH 7.4, 150 mmol/L potassium chloride, 10 mmol/L magnesium chloride) containing 0.5 mg protein/mL of human liver microsomes. After the reaction, 50 μL of the reaction solution was added to 100 μL of a methanol/acetonitrile=1/1 (v/v), mixed and centrifuged at 3000 rpm for 15 minutes. The compound of the present invention in the supernatant was quantified by LC/MS/MS, and a remaining amount of the compound of the present invention after the reaction was calculated, letting a compound amount at 0 minute reaction time to be 100%.

Data set [5] is described as follows: Test Example 9-2: Metabolism Stability Test. The data set is classed as in vitro ADME. The following applies: human liver microsomes 0.5 mg protein/mL, 30 minutes, 37° C., 1 mmol/L NADPH. The procedure: as §1
as §2, with “LC/MS/MS or Solid Phase Extraction (SPE)/MS,” for “LC/MS/MS,”

[6] abbreviates: human TrkA 2.5 nmol/L, ATP 500 μmol/L, 90 min at room temperature, read-out: TrkA inhibitory activity IC50.
The mark [7] stands for this setting: human TrkA 1 nmol/L, 120 min at 37° C., read-out: TrkA inhibition IC50.
Where [8] appears, read: human TrkA inhibition, class symbols A/B/C, read-out: IC50_nM.

The structures appear in SMILES notation.

T1 sequence (P04629 33-796): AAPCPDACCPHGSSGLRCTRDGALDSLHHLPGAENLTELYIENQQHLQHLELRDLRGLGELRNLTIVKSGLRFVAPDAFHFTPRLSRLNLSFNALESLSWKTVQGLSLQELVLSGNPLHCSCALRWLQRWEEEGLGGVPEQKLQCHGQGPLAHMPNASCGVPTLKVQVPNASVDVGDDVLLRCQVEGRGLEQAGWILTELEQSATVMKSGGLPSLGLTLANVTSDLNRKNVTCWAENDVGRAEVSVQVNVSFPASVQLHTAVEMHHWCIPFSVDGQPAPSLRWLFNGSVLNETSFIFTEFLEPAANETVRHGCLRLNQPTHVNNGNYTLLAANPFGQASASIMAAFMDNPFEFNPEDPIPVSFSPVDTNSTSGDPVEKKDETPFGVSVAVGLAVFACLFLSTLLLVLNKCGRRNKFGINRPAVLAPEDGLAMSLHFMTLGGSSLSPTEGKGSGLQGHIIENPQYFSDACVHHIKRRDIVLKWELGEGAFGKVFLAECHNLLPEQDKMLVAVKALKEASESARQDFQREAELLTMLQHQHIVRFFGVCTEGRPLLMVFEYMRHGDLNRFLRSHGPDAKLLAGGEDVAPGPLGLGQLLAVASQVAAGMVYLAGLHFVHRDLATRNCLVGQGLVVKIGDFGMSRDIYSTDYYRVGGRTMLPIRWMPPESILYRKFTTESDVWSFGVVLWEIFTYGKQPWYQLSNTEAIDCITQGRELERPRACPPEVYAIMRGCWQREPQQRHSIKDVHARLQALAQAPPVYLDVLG
T2 sequence (Q12809 whole entry): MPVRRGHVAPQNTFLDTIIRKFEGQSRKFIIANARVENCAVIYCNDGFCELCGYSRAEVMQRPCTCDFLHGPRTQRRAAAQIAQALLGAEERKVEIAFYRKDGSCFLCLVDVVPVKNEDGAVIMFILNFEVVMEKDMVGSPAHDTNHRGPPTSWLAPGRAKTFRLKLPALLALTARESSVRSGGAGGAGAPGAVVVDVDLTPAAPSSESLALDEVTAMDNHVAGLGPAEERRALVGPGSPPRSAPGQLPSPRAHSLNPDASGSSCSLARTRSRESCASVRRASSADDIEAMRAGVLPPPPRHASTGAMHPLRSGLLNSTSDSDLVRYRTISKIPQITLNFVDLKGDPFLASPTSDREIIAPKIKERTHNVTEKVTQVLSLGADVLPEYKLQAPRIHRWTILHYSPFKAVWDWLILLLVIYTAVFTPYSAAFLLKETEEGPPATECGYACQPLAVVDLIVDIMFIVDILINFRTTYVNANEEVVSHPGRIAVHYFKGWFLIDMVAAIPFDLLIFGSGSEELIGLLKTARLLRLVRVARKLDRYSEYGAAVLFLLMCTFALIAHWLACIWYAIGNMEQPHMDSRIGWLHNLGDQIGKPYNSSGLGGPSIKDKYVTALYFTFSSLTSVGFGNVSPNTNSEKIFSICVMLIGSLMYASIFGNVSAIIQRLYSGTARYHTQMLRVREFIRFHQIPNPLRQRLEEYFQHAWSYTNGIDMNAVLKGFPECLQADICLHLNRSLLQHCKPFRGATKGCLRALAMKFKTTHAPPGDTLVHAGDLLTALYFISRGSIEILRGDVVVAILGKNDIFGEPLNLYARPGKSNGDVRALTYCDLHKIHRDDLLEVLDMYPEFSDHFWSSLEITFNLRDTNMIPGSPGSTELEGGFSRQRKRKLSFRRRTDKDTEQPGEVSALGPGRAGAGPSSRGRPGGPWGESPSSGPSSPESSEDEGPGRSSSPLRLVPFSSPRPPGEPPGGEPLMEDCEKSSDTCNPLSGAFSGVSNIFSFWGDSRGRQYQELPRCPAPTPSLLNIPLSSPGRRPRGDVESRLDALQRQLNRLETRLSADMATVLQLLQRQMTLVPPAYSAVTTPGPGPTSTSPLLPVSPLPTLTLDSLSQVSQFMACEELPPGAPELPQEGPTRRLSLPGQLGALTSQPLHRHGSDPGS

As to `COCC[N+]1([O-])C[C@@H](NC(=O)Nc2c(C)c(-c3cnn(C)c3)nn2-c2ccccc2)[C@H](c2ccc(F)c(F)c2)C1` (some centres unmarked) [Compound I-3], the IC50 on human TrkA [1] (setting [6]) is 0.065 µM; at human TrkA [2] (setting [7]), 0.05 µM. Moreover, in data set [3], the “% inhibition of IKr (hERG tail peak current)” value (from here on “% inhibition of IKr”) is on record as 20.4%.
In the case of `COCCN1C[C@@H](NC(=O)Nc2c(C)c(-c3cnn(C)c3)nn2-c2ccccc2)[C@H](c2ccnc(C#N)c2)C1` (racemic) [Compound I-180], the IC50 at human TrkA [2] (setting [8]) is 0.1 to 1 µM. In data set [4], the “remaining amount of compound after reaction” value (“remaining amount of compound” below) came out at 90%.
`COCC[C@@H]1C[C@@H](NC(=O)Nc2c(C)c(-c3cnc(C)nc3)nn2-c2ccccc2)[C@H](c2ccc(F)c(F)c2)N1C` [Compound I-255]: the IC50 at human TrkA [2] (setting [7]) was 0.0011 µM. The “% inhibition of IKr” value in data set [3] is on record as 10.2%.
Turning to `COCCN1C[C@@H](NC(=O)Nc2c(C)c(-c3cnn(C)c3)nn2-c2ccccc2)[C@H](c2ccc3c(c2)OCO3)C1` (racemic) [Compound I-94], the IC50 turned out to be 0.022 µM on human TrkA [1] (setting [6]) and 0.21 µM on human TrkA [2] (setting [7]).
Consider `COCC(=O)N1C[C@@H](NC(=O)Nc2c(C)c(-c3cnn(C)c3)nn2-c2ccccc2)[C@H](c2ccc(F)c(F)c2)C1` [Compound I-026], for which, in data set [3], the “% inhibition of IKr” value turned out to be 3.3%.
Regarding `CC=C1C[C@@H](NC(=O)Nc2c(C)c(-c3cnn(C)c3)nn2-c2ccccc2)[C@H](c2ccccc2)C1` [Compound I-102], the IC50 was 0.043 µM on human TrkA [1] (setting [6]) and 0.021 µM at human TrkA [2] (setting [7]).
For `COCC[C@@H]1C[C@@H](NC(=O)Nc2c(C)c(-c3cnn(C)c3)nn2-c2ccccc2)[C@H](c2ccnc(F)c2)C1` [Compound I-262], the IC50 at human TrkA [2] (setting [7]) was determined as 0.0048 µM. Further, in data set [3], the “% inhibition of IKr” value amounted to 20.1%.
As for `COCC[C@@H]1C[C@@H](NC(=O)Nc2c(C)c(-c3cnn(C)c3)nn2-c2ccccc2)[C@H](c2ccccc2)C1` [Compound I-84], the IC50 on human TrkA [1] (setting [6]) amounted to 0.00072 µM; at human TrkA [2] (setting [7]) it was 0.0015 µM.
With `COCC[C@@H]1C[C@@H](NC(=O)Nc2c(C)c(-c3cnn(C)c3)nn2-c2ccccc2)[C@H](c2ccccc2)C1` [Compound I-084], the “% inhibition of IKr” value in data set [3] was 10.0%.
As for `C=C1C[C@@H](NC(=O)Nc2c(C)c(-c3cnn(C)c3)nn2-c2ccccc2)[C@H](c2ccccc2)C1` (racemic) [Compound I-29], the IC50 on human TrkA [1] (setting [8]) was under 0.1 µM. In addition, in data set [3], the “% inhibition of IKr” value is 21.2%.
Consider `COCCN1C[C@@H](NC(=O)Nc2c(C)c(-c3cnn(C)c3)nn2-c2ccccc2)[C@H](c2ccc3ncsc3c2)C1` (racemic) [Compound I-107], for which, at human TrkA [1] (setting [8]), the IC50 was under 0.1 µM. Besides, in data set [5], the “remaining amount of compound” value stood at 92%.
For the molecule `COCC[C@@H]1C[C@@H](NC(=O)Nc2c(C)c(-c3cnn(C)c3)nn2-c2ccccc2)[C@H](c2ccc(F)c(F)c2)N1C` [Compound I-214], the IC50 on human TrkA [2] (setting [8]) is under 0.1 µM. In addition, in data set [3], the “% inhibition of IKr” value worked out at 20.2%.
Take `COCCC1C[C@@H](NC(=O)Nc2c(C)c(-c3cnn(C)c3)nn2-c2ccccc2)[C@H](c2ccc(F)c(F)c2)N1` (some centres unmarked) [Compound I-91]: the IC50 at human TrkA [1] (setting [6]) turned out to be 0.0078 µM; at human TrkA [2] (setting [7]), 0.037 µM.
As to `COCCN1C[C@@H](NC(=O)Nc2c(C)c(-c3cnn(C)c3)nn2-c2ccccc2)[C@H](c2ccc3c(c2)NC(=O)CO3)C1` (racemic) [Compound I-136], the IC50 at human TrkA [1] (setting [8]) was in the range of 0.1 to 1 µM. The “remaining amount of compound” value in data set [5] is listed as 104%.
Take `COCCN1C[C@@H](NC(=O)Nc2c(C)c(-c3cnn(C)c3)nn2-c2ccccc2)[C@H](c2cccc(O)c2)C1` (racemic) [Compound I-96]: the IC50 worked out at 0.029 µM at human TrkA [1] (setting [6]) and 0.16 µM at human TrkA [2] (setting [7]). In addition, in data set [5], the “remaining amount of compound” value is given as 90%.
Consider `Cc1c(-c2cnn(C)c2)nn(-c2ccccc2)c1NC(=O)N[C@@H]1CN(CCOCC(F)(F)F)C[C@H]1c1ccc(F)c(F)c1` [Compound I-22], for which the IC50 on human TrkA [1] (setting [6]) worked out at 0.035 µM; on human TrkA [2] (setting [7]) it was 0.17 µM.
For `COCCC1C[C@@H](NC(=O)Nc2c(C)c(-c3cnn(C)c3)nn2-c2ccccc2)[C@H](c2ccc(F)c(F)c2)N1C` (some centres unmarked) [Compound I-87] the same measures were 0.0018 µM and 0.0054 µM.
For the molecule `COCCC1C[C@@H](NC(=O)Nc2c(C)c(-c3cnn(C)c3)nn2-c2ccccc2)[C@H](c2ccc(O)c(O)c2)C1` (some centres unmarked) [Compound I-221], on human TrkA [2] (setting [8]), the IC50 is under 0.1 µM. For the same molecule, in data set [3], the “% inhibition of IKr” value came to 13.2%.
For the molecule `COCCN1C[C@@H](NC(=O)Cc2c(C)c(-c3cnn(C)c3)nn2-c2ccccc2)[C@H](c2ccc(F)c(F)c2)C1` [Compound I-8], the IC50 on human TrkA [1] (setting [6]) is 0.026 µM; at human TrkA [2] (setting [7]), 0.071 µM.
